Results from PMC11356873, “Trolox, Ferulic, Sinapic, and Cinnamic Acid Derivatives of Proline and GABA with Antioxidant and/or Anti-Inflammatory Properties” (Molecules, 2024).

How the values were obtained:
soybean lipoxygenase = molecular target: T1, soybean lipoxygenase (Glycine max, UniProt P08170); assay: Soybean lipoxygenase inhibition; type: biochemical
T1 construct: purchased Sigma (St. Louis, MO, USA)
T1 sequence (P08170 1-839): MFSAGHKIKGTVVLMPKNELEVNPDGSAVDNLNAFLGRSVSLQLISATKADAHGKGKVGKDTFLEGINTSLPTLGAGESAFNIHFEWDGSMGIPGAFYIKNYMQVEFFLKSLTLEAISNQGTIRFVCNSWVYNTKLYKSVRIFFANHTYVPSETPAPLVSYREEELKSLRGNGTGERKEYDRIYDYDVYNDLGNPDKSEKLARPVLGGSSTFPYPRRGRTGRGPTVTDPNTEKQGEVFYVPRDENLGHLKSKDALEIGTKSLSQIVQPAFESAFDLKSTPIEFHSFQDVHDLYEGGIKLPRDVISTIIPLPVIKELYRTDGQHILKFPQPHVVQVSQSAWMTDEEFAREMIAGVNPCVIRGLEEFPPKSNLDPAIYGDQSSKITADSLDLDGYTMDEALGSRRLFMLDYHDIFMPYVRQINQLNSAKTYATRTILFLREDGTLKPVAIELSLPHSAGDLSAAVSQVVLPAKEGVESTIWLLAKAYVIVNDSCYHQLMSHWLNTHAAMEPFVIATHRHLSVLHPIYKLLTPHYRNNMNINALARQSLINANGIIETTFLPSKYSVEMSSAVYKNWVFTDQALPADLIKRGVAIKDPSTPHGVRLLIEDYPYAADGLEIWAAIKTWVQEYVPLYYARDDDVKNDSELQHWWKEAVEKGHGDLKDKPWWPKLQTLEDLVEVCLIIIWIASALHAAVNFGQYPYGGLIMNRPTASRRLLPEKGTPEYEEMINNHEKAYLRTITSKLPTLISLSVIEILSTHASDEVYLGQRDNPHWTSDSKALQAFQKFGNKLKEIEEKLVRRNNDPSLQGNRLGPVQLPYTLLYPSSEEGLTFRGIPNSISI
Description: The reaction mixture (total volume of 3 mL) contained 100 μL of the test compounds (100 μM) or the solvent (absolute ethanol, control), 200 μL of soybean LOX (250 u/mL, in a 0.9% NaCl solution), and 2.6 mL of Tris–HCl buffer with a pH of 9.0. The reaction was initiated by the addition of 100 μL sodium linoleate (100 μM) in the sample mixture (with an equal volume of buffer added to the reference solution). The reaction was followed for 7 min at 28 °C, and the absorbance (234 nm) of a conjugated diene structure was recorded.

Bovine serum albumin = Bovine serum albumin (Bos taurus, UniProt P02769); assay: Inhibition of fructose/copper-induced oxidative protein glycation; type: biochemical; details: concentration of 1mM, after 72 h of incubation
Chain of Bovine serum albumin (P02769 25-607): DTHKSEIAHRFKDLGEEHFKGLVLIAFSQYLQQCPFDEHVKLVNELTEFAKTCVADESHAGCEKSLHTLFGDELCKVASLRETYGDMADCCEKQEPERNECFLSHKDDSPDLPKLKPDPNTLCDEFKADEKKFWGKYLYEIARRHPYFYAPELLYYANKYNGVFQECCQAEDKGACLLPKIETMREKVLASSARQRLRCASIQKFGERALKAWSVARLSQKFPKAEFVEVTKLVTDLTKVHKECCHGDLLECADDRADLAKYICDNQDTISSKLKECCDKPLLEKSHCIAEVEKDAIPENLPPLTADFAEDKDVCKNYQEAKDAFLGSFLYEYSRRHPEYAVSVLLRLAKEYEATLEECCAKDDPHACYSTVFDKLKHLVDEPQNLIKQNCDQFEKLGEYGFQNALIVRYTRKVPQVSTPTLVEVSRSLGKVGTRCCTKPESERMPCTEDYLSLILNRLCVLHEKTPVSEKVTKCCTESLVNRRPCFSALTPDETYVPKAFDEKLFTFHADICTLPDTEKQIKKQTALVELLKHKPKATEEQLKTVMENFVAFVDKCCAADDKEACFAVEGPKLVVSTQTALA
Description: The purification of the glycation product was based on protein precipitation and washing with trichloroacetic acid (TCA). The concentration of the glycation-modified protein was estimated by fluorescence measurements (excitation of 340 nm, emission of 410 nm). Incubations performed under the same conditions, yet in the absence of fructose, were used as a control. All the fluorescence measurements were expressed relatively to the standard quinine sulphate solution (1 μg/mL).

acetylcholinesterase = molecular target: T2, acetylcholinesterase (Rattus norvegicus, UniProt P37136); assay: Acetylcholinesterase inhibition (acetylthiocholine hydrolysis, rat brain homogenate); type: biochemical; details: acetylthiocholine 0.5 mM, after 7 min of incubation
T2 construct: mixed with brain homogenate (20 mg of tissue per mL) from untreated rats; from tissue; host or cells: rat brain homogenate
T2 sequence (P37136 32-614): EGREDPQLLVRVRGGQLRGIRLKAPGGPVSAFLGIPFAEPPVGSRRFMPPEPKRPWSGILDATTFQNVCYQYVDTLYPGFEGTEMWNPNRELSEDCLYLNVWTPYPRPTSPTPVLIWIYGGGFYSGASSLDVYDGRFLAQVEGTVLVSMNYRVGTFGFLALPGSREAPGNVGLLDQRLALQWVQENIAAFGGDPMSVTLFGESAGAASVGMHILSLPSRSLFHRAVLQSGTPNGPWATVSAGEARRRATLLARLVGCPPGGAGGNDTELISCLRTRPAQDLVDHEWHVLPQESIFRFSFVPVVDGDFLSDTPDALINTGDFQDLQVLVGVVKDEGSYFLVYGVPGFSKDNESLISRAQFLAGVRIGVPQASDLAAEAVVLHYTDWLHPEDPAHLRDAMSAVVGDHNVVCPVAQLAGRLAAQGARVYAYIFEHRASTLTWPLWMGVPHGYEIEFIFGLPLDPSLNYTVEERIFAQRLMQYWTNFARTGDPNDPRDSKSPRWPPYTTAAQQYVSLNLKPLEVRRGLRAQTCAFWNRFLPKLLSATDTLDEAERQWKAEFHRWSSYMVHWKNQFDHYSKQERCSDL
Description: The tested compounds, dissolved in 60% ethanol, were mixed with brain homogenate (20 mg of tissue per mL) from untreated rats (in 0.1 M phosphate buffer with a pH of 8) and acetylthiocholine (0.5 mM).

[1] = Interaction with the stable free radical DPPH; details: for Interaction with DPPH (in words): 25-200 μΜ; for % Interaction with DPPH / Time to completion of the reaction with DPPH: DPPH 200 μΜ; for % Interaction with DPPH: after 30 min of incubation
Description: The tested compounds, dissolved in absolute ethanol at final concentrations of 25 up to 200 μΜ, were mixed with DPPH and dissolved in the same solvent at a final concentration of 200 μΜ. The absorbance at 517 nm was recorded every 5 min for 30 min [41].

[2] = tested on: lipid peroxidation of rat hepatic microsomal membranes; assay: Inhibition of lipid peroxidation of rat hepatic microsomal membranes (TBA-reactive material); details: for IC50, lipid peroxidation / IC50: rat hepatic microsomal membranes, after 45 min of incubation; for IC50: read-out: IC50, lipid peroxidation

SMILES	inhibition at 100 µM (soybean lipoxygenase) [%]	% Inhibition of protein glycation (Bovine serum albumin)	IC50 (acetylcholinesterase) [µM]	Interaction with DPPH (in words) [1]	IC50, lipid peroxidation [2]	IC50 [2] [µM]	% Interaction with DPPH ([1]; compound 25 μΜ) [%]	% Interaction with DPPH ([1]; compound 50 μΜ) [%]	% Interaction with DPPH ([1]; compound 100 μΜ) [%]	% Interaction with DPPH ([1]; compound 200 μΜ) [%]	inhibition at 1000 µM (Bovine serum albumin) [%]	Time to completion of the reaction with DPPH ([1]; compound 200 μΜ)	IC50, acetylcholinesterase (acetylcholinesterase)	Activity against lipid peroxidation relative to Trolox ([2]; comparison of IC50 values)
COC(=O)CCCNC(=O)C1CCCN1C(=O)/C=C/c1ccc(OC)c(OC)c1 (stereo not shown) [Compound 3c, (E)-methyl 4-(1-(3-(3,4-dimethoxyphenyl)acryloyl)pyrrolidine-2-carboxamido)butanoate]	32	did not exert any inhibition and -	284	could not interact with DPPH at all	could not inhibit lipid peroxidation	> 1000								
Cc1c(C)c2c(c(C)c1O)CCC(C)(C(=O)O)O2 (stereo not shown) [Trolox, 6-hydroxy-2,5,7,8-tetramethylchroman-2-carboxylic acid]						25	19	38	90	92				
COC(=O)CCCNC(=O)C1CCCN1C(=O)/C=C/c1cc(OC)c(O)c(OC)c1 (stereo not shown) [Compound 2c, (E)-methyl 4-(1-(3-(4-hydroxy-3,5-dimethoxyphenyl)-acryloyl)pyrrolidine-2-carboxamido)-butanoate]	40		298			290	17	36	64	85	48	completed in the first five minutes		
COC(=O)CCCNC(=O)C1CCCN1C(=O)C1(C)CCc2c(C)c(O)c(C)c(C)c2O1 (stereo not shown) [Compound 5c, Methyl 4-(1-(6-hydroxy-2,5,7,8-tetramethylchroman-2-carbonyl)pyrrolidine-2-carboxamido)-butanoate]	26					8	28	54	87	89	37	completed in the first five minutes	could not inhibit the enzyme and no inhibitory activity and -	about three times more active than Trolox
N=C(N)NN [Aminoguanidine, reference compound]		56%												
COC(=O)CCCNC(=O)C1CCCN1C(=O)/C=C/c1ccc(O)c(OC)c1 (stereo not shown) [Compound 1c, (E)-methyl 4-(1-(3-(4-hydroxy-3-methoxyphenyl)acryloyl)pyrrolidine-2-carboxamido)butanoate]	36		219			839	10	24	37	58	41	about 15 min		
COC(=O)CCCNC(=O)C1CCCN1C(=O)/C=C/c1ccccc1 (stereo not shown) [Compound 4c, (E)-methyl 4-(1-cinnamoylpyrrolidine-2-carboxamido)butanoate]	40	did not exert any inhibition and -		could not interact with DPPH at all	could not inhibit lipid peroxidation	> 1000							-	
